In patent US20070015780A1, “Method of treating cancer with azaspirane compositions” (priority 2003, published 2007):
Structures can show the parent of a compound that is named as a salt.

Assay: Excretion and recovery of radioactivity after single oral administration, target dose 1 mg free base/kg
Type: in vivo, male Sprague Dawley rats
Design: Excretion of Radioactivity, Urine / Excretion of Radioactivity, Cage Wash: unit not given beside the values
Details: for Recovery of Radioactivity, Carcass / Recovery of Radioactivity, GI Tract: at 168 hours
Description: [^14C] N,N,-diethyl-8,8-dipropyl-2-azaspiro[4,5]decane-2-propanamine dimaleate salt, (“Compound II”) with a specific activity of 91 uCi/mg and chemical purity >99%, and non-radiolabeled dimaleate salt of N,N,-diethyl-8,8-dipropyl-2-azaspiro[4,5]decane-2-propanamine dimaleate (Compound 1) chemical purity >98%, respectively, were used in this study. The site of the radiocarbon label in Compound II is depicted by an asterisk in Formula II. The non-radiolabeled material was used for reference purposes. The radiolabeled material was stored at ca −80° C. in the dark and the non-radiolabeled material at ca −20° C. in the dark.
Three healthy male Sprague Dawley rats (Crl:CD(SD)BR), age ca 8-9 weeks, body weights at dosing 237-255 g, were supplied by Charles River (UK) Limited. The animals were housed in holding cages suitable for this species for 8 days prior to use. SDS Rat and Mouse Maintenance Diet No. 1, (Special Diets Services, Witham Essex), and mains quality water were available ad libitum throughout. The diet and water supplied to the animals were routinely analyzed for quality and no problems were detected. Holding and study areas had automatic control of light cycle and temperature. The actual range of temperature measured during the study was 17-25° C. with relative humidity measured at 60%.
The dose was prepared for oral administration on the day of dosing. […]
For each rat, an aliquot of the dose solution was administered orally by gavage. […] For each dose, the combined weight of dose and dosing equipment were recorded prior to dosing and the discharged dosing equipment was weighed after dosing. The concentration of radioactive material in each dose solution was also determined.
Immediately following dosing, the rats were placed into all glass metabolism cages suitable for the quantitative collection of excreta and expired air. All samples were collected into individual, uniquely labeled containers.
[…] The collection containers were cooled by solid CO2 during the first 48 hours after dosing.
[…] Collection containers were cooled by solid CO2 during the first 48 hours.
At the time of each feces collection, each cage was washed with water (ca 750 mL) and the washings were retained for radioassay. During the periods 0-24 h and 24-48 hours after dosing, expired air was passed through 2 serial traps containing ethanolamine:ethoxyethaonol (3:7, v/v) in order to effect the removal of CO2. The trap solvent was sampled for radioassay at the end of each collection period.
At 168 hours post dose, each animal was killed by CO2 narcosis and cervical dislocation. Gastrointestinal tracts were removed and retained separately from the carcasses in preparation for radioassay.
Duplicate aliquots of urine (ca 0.3 mL) and cage washings (ca 1 mL) were dispensed, diluted to 1 mL with distilled water (if considered necessary) and mixed with Quickzint 1 scintillation fluid (10 mL; Zinsser Analytic Maidenhead, UK).
Feces were homogenised in 1 to 2 volumes of water with the sample and homogenate weight recorded. Duplicate aliquots (ca 0.3 ) were taken from each sample and dispensed onto combustopads contained in combustocones (Canberra Packard Limited, Pangbourne, UK). When dry, these samples were combusted using a Packard Tri-Carb 306 Automatic Sample Oxidiser. The resultant ^14CO2 generated was collected by absorption in Carbo-Sorb® (8 mL; Canberra Packard Limited) to which Permafluor®E^+ scintillation fluid (10 mL; Canberra Packard Limited) was added.
For each rat, the carcass and gastro-intestinal tract with contents were solubilised in Soluene 350 (Canberra Packard). When dissolved, portions of the digest (ca 0.1 mL) were taken for liquid scintillation spectrometry. The volume was made up to 1 mL by the addition of methanol then 10 mL Quickzint was added and the samples counted as for the other liquid samples. […]

[1] = 168 hour collection period, #3 male

CCCC1(CCC)CCC2(CCN(CCCN(CC)CC)C2)CC1 [Compound II, [^14C] N,N,-diethyl-8,8-dipropyl-2-azaspiro[4,5]decane-2-propanamine dimaleate salt]
Excretion of Radioactivity, Urine (0-6 hours, #1 male): 0.1
Excretion of Radioactivity, Urine (0-6 hours, #2 male): 0.1
Excretion of Radioactivity, Urine (0-6 hours, #3 male): 0.1
Excretion of Radioactivity, Cage Wash (0-24 hours, #1 male): 0.1
Excretion of Radioactivity, Feces (0-24 hours, #1 male): 18.2
Excretion of Radioactivity, Cage Wash (0-24 hours, #2 male): 0.1
Excretion of Radioactivity, Feces (0-24 hours, #2 male): 14.7
Excretion of Radioactivity, Cage Wash (0-24 hours, #3 male): *<0.1
Excretion of Radioactivity, Feces (0-24 hours, #3 male): 17.7
Excretion of Radioactivity, Cage Wash (0-24 hours, Mean): ^+0.1
Excretion of Radioactivity, Feces (0-24 hours, Mean): 16.9
Dose recovered in expired air (0-48 hours): Less than 0.2 % of the dose
Excretion of Radioactivity, Cage Wash (0-168 hours, #1 male): 0.7
Excretion of Radioactivity, Feces (0-168 hours, #1 male): 64.0
Excretion of Radioactivity, Urine (0-168 hours, #1 male): 6.9
Excretion of Radioactivity, Cage Wash (0-168 hours, #2 male): 1.0
Excretion of Radioactivity, Feces (0-168 hours, #2 male): 65.7
Excretion of Radioactivity, Urine (0-168 hours, #2 male): 8.9
Excretion of Radioactivity, Cage Wash (0-168 hours, #3 male): 1.3
Excretion of Radioactivity, Feces (0-168 hours, #3 male): 66.7
Excretion of Radioactivity, Urine (0-168 hours, #3 male): 9.8
Excretion of Radioactivity, Cage Wash (0-168 hours, Mean): 1.0
Excretion of Radioactivity, Feces (0-168 hours, Mean): 65.5
Excretion of Radioactivity, Urine (0-168 hours, Mean): 8.5
Excretion of Radioactivity, Urine (6-24 hours, #1 male): 0.4
Excretion of Radioactivity, Urine (6-24 hours, #2 male): 0.5
Excretion of Radioactivity, Urine (6-24 hours, #3 male): 0.5
Excretion of Radioactivity, Urine (6-24 hours, Mean): 0.5
Excretion of Radioactivity, Cage Wash (24-48 hours, #1 male): 0.1
Excretion of Radioactivity, Feces (24-48 hours, #1 male): 16.3
Excretion of Radioactivity, Urine (24-48 hours, #1 male): 1.0
Excretion of Radioactivity, Cage Wash (24-48 hours, #2 male): <0.1
Excretion of Radioactivity, Feces (24-48 hours, #2 male): 17.2
Excretion of Radioactivity, Urine (24-48 hours, #2 male): 1.4
Excretion of Radioactivity, Cage Wash (24-48 hours, #3 male): 0.1
Excretion of Radioactivity, Feces (24-48 hours, #3 male): 14.5
Excretion of Radioactivity, Urine (24-48 hours, #3 male): 1.4
Excretion of Radioactivity, Cage Wash (24-48 hours, Mean): 0.1
Excretion of Radioactivity, Feces (24-48 hours, Mean): 16.0
Excretion of Radioactivity, Urine (24-48 hours, Mean): 1.3
Excretion of Radioactivity, Cage Wash (48-72 hours, #1 male): <0.1
Excretion of Radioactivity, Feces (48-72 hours, #1 male): 10.0
Excretion of Radioactivity, Urine (48-72 hours, #1 male): 1.2
Excretion of Radioactivity, Cage Wash (48-72 hours, #2 male): 0.2
Excretion of Radioactivity, Feces (48-72 hours, #2 male): 15.2
Excretion of Radioactivity, Urine (48-72 hours, #2 male): 1.5
Excretion of Radioactivity, Cage Wash (48-72 hours, #3 male): 0.2
Excretion of Radioactivity, Feces (48-72 hours, #3 male): 12.7
Excretion of Radioactivity, Urine (48-72 hours, #3 male): 1.7
Excretion of Radioactivity, Cage Wash (48-72 hours, Mean): 0.1
Excretion of Radioactivity, Feces (48-72 hours, Mean): 12.6
Excretion of Radioactivity, Urine (48-72 hours, Mean): 1.5
Excretion of Radioactivity, Cage Wash (72-96 hours, #1 male): 0.1
Excretion of Radioactivity, Feces (72-96 hours, #1 male): 7.5
Excretion of Radioactivity, Urine (72-96 hours, #1 male): 1.3
Excretion of Radioactivity, Cage Wash (72-96 hours, #2 male): 0.2
Excretion of Radioactivity, Feces (72-96 hours, #2 male): 7.8
Excretion of Radioactivity, Urine (72-96 hours, #2 male): 1.6
Excretion of Radioactivity, Cage Wash (72-96 hours, #3 male): 0.3
Excretion of Radioactivity, Feces (72-96 hours, #3 male): 8.0
Excretion of Radioactivity, Urine (72-96 hours, #3 male): 2.0
Excretion of Radioactivity, Cage Wash (72-96 hours, Mean): 0.2
Excretion of Radioactivity, Feces (72-96 hours, Mean): 7.8
Excretion of Radioactivity, Urine (72-96 hours, Mean): 1.6
Excretion of Radioactivity, Cage Wash (96-120 hours, #1 male): 0.1
Excretion of Radioactivity, Feces (96-120 hours, #1 male): 5.5
Excretion of Radioactivity, Urine (96-120 hours, #1 male): 1.2
Excretion of Radioactivity, Cage Wash (96-120 hours, #2 male): 0.2
Excretion of Radioactivity, Feces (96-120 hours, #2 male): 4.1
Excretion of Radioactivity, Urine (96-120 hours, #2 male): 1.5
Excretion of Radioactivity, Cage Wash (96-120 hours, #3 male): 0.2
Excretion of Radioactivity, Feces (96-120 hours, #3 male): 6.4
Excretion of Radioactivity, Urine (96-120 hours, #3 male): 1.6
Excretion of Radioactivity, Cage Wash (96-120 hours, Mean): 0.2
Excretion of Radioactivity, Feces (96-120 hours, Mean): 5.3
Excretion of Radioactivity, Urine (96-120 hours, Mean): 1.4
Excretion of Radioactivity, Cage Wash (120-144 hours, #1 male): 0.1
Excretion of Radioactivity, Feces (120-144 hours, #1 male): 3.5
Excretion of Radioactivity, Urine (120-144 hours, #1 male): 0.9
Excretion of Radioactivity, Cage Wash (120-144 hours, #2 male): 0.1
Excretion of Radioactivity, Feces (120-144 hours, #2 male): 3.5
Excretion of Radioactivity, Urine (120-144 hours, #2 male): 1.3
Excretion of Radioactivity, Cage Wash (120-144 hours, #3 male): 0.3
Excretion of Radioactivity, Feces (120-144 hours, #3 male): 4.3
Excretion of Radioactivity, Urine (120-144 hours, #3 male): 1.3
Excretion of Radioactivity, Cage Wash (120-144 hours, Mean): 0.2
Excretion of Radioactivity, Feces (120-144 hours, Mean): 3.8
Excretion of Radioactivity, Urine (120-144 hours, Mean): 1.2
Excretion of Radioactivity, Urine (144-162 hours, #1 male): 0.8
Excretion of Radioactivity, Urine (144-162 hours, #2 male): 1.0
Excretion of Radioactivity, Urine (144-162 hours, #3 male): 1.2
Excretion of Radioactivity, Urine (144-162 hours, Mean): 1.0
Excretion of Radioactivity, Cage Wash (144-168 hours, #1 male): 0.2
Excretion of Radioactivity, Feces (144-168 hours, #1 male): 3.0
Excretion of Radioactivity, Cage Wash (144-168 hours, #2 male): 0.2
Excretion of Radioactivity, Feces (144-168 hours, #2 male): 3.2
Excretion of Radioactivity, Cage Wash (144-168 hours, #3 male): 0.2
Excretion of Radioactivity, Feces (144-168 hours, #3 male): 3.1
Excretion of Radioactivity, Cage Wash (144-168 hours, Mean): 0.2
Excretion of Radioactivity, Feces (144-168 hours, Mean): 3.1
Recovery of Radioactivity, Total (168 hour collection period, #1 male): 96.7 % administered dose
Recovery of Radioactivity, Total (168 hour collection period, #2 male): 103.0 % administered dose
Recovery of Radioactivity, Cage Washings [1]: *1.3 % administered dose
Recovery of Radioactivity, Total [1]: 103.2 % administered dose
Recovery of Radioactivity, Total (168 hour collection period, Mean): 101.0 % administered dose
Recovery of Radioactivity, Expired air 1 (#1 male): *<0.1 % administered dose
Recovery of Radioactivity, Expired air 2 (#1 male): *<0.1 % administered dose
Recovery of Radioactivity, Expired air 1 (#2 male): *<0.1 % administered dose
Recovery of Radioactivity, Expired air 2 (#2 male): *<0.1 % administered dose
Recovery of Radioactivity, Expired air 1 (#3 male): *<0.1 % administered dose
Recovery of Radioactivity, Expired air 2 (#3 male): *<0.1 % administered dose
Recovery of Radioactivity, Expired air 1 (Mean): ^+<0.1 % administered dose
Recovery of Radioactivity, Expired air 2 (Mean): ^+<0.1 % administered dose
Recovery of Radioactivity, Carcass (#1 male): 11.3 % administered dose
Recovery of Radioactivity, GI Tract (#1 male): 13.8 % administered dose
Recovery of Radioactivity, Carcass (#2 male): 14.1 % administered dose
Recovery of Radioactivity, GI Tract (#2 male): 13.3 % administered dose
Recovery of Radioactivity, Carcass (#3 male): 14.9 % administered dose
Recovery of Radioactivity, GI Tract (#3 male): 10.5 % administered dose
Recovery of Radioactivity, Carcass (Mean): ~13.5 % administered dose
Recovery of Radioactivity, GI Tract (Mean): ~12.5 % administered dose
Dose recovered in excreta and cage washings (mean, full 168 hour collection period): 75.0%
Administered radioactive dose recovered (total) (range over three rats, 168 hours): 96.7-103.2%
Dose recovered in the excreta (up to 120 hours after dosing): ~66 % of the dose
